Assay results: PubChem BioAssay AID1963861 (Molecular Pharmacology Branch, DTP, NCI, 2024)

Tested on: 885724-159-R-J1-PDC KRAS PDC multicell spheroid viability
Assay: Anticancer human tumor 885724-159-R-J1-PDC patient-derived pancreatic adenocarcinoma cell line growth inhibition [KRAS2]
Settings: for viability, T/C: stronger effect = lower value
Procedure, shortened: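 Combination screen of spheroid viability in tumor-cell co-cultures with endothelial (HUVEC) and mesenchymal stem cell stroma. Each agent was tested in half-log dilutions, topping at clinical Cmax or at 10 microM without a known Cmax.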

[1] = curve of first compound, second compound 0.1 µM
[2] = curve of first compound, second compound 0.316 µM
[3] = curve of first compound, second compound 1 µM
[4] = curve of first compound, second compound 3.16 µM
[5] = second compound 0.1 µM, first compound 0.0316 µM
[6] = second compound 0.1 µM, first compound 0.1 µM
[7] = second compound 0.1 µM, first compound 0.316 µM
[8] = second compound 0.1 µM, first compound 1 µM
[9] = second compound 0.316 µM, first compound 0.0316 µM
[10] = second compound 0.316 µM, first compound 0.1 µM
[11] = second compound 0.316 µM, first compound 0.316 µM
[12] = second compound 0.316 µM, first compound 1 µM
[13] = second compound 1 µM, first compound 0.0316 µM
[14] = second compound 1 µM, first compound 0.1 µM
[15] = second compound 1 µM, first compound 0.316 µM
[16] = second compound 1 µM, first compound 1 µM
[17] = second compound 3.16 µM, first compound 0.0316 µM
[18] = second compound 3.16 µM, first compound 0.1 µM
[19] = second compound 3.16 µM, first compound 0.316 µM
[20] = second compound 3.16 µM, first compound 1 µM
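Also: spheroids exposed to agents for 7 days before readout.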

CC(=O)Nc1cccc(-n2c(=O)n(C3CC3)c(=O)c3c(Nc4ccc(I)cc4F)n(C)c(=O)c(C)c32)c1
viability, T/C (compound 0.0001 µM): 89.6% [middle of 5 runs] | viability, T/C (compound 0.000316 µM): 68.2% [middle of 5 runs] | viability, T/C (compound 0.001 µM): 49.6% [middle of 5 runs] | viability, T/C (compound 0.00316 µM): 36.5% [middle of 5 runs] | viability, T/C (compound 0.01 µM): 25.7% [middle of 5 runs] | viability, T/C (compound 0.0316 µM): 18.6% [middle of 5 runs] | IC50 (curve of compound): 0.966 nM [middle of 5 runs]

COc1cc(Nc2ncc3c(n2)-c2ccc(Cl)cc2C(c2c(F)cccc2OC)=NC3)ccc1C(=O)O
viability, T/C (compound 0.0316 µM): 93.8% [middle of 5 runs] | viability, T/C (compound 0.1 µM): 89.1% [middle of 5 runs] | viability, T/C (compound 0.316 µM): 88.7% [middle of 5 runs] | viability, T/C (compound 1 µM): 90% [middle of 5 runs] | viability, T/C (compound 3.16 µM): 96.2% [middle of 5 runs] | viability, T/C (compound 10 µM): 98.4% [middle of 5 runs] | IC50 (curve of compound): > 10000 nM

CCN1CCN(Cc2ccc(Nc3ncc(F)c(-c4cc(F)c5nc(C)n(C(C)C)c5c4)n3)nc2)CC1 + CNCc1ccccc1-c1csc(C(C)Nc2nc(C)nc3cc(OC)c(OC)cc23)c1
IC50 [1]: > 1000 nM | IC50 [2]: > 1000 nM | IC50 [3]: > 1000 nM | IC50 [4]: < 3.16 nM | IC50 (curve of first compound, second compound 10 µM): < 3.16 nM | viability, T/C (second compound 0.1 µM, first compound 0.00316 µM): 110% | viability, T/C (second compound 0.1 µM, first compound 0.01 µM): 100% | viability, T/C [5]: 92.2% | viability, T/C [6]: 86.8% | viability, T/C [7]: 87.2% | viability, T/C [8]: 96.9% | viability, T/C (second compound 0.316 µM, first compound 0.00316 µM): 106% | viability, T/C (second compound 0.316 µM, first compound 0.01 µM): 94.8% | viability, T/C [9]: 78.2% | viability, T/C [10]: 83.4% | viability, T/C [11]: 94% | viability, T/C [12]: 90.9% | viability, T/C (second compound 1 µM, first compound 0.00316 µM): 95% | viability, T/C (second compound 1 µM, first compound 0.01 µM): 96.3% | viability, T/C [13]: 76.6% | viability, T/C [14]: 78.3% | viability, T/C [15]: 74.8% | viability, T/C [16]: 71.2% | viability, T/C (second compound 3.16 µM, first compound 0.00316 µM): 0.67% | viability, T/C (second compound 3.16 µM, first compound 0.01 µM): 1.81% | viability, T/C [17]: 0.79% | viability, T/C [18]: 4.1% | viability, T/C [19]: 0.68% | viability, T/C [20]: 0.56% | viability, T/C (second compound 10 µM, first compound 0.00316 µM): 0.19% | viability, T/C (second compound 10 µM, first compound 0.01 µM): 0.32% | viability, T/C (second compound 10 µM, first compound 0.0316 µM): 0.2% | viability, T/C (second compound 10 µM, first compound 0.1 µM): 0.19% | viability, T/C (second compound 10 µM, first compound 0.316 µM): 0.19% | viability, T/C (second compound 10 µM, first compound 1 µM): 0.28%

CC(C)NCC(C(=O)N1CCN(c2ncnc3c2C(C)CC3O)CC1)c1ccc(Cl)cc1 (centres undefined) + C=CC(=O)N1CCN(c2nc(OCC3CCCN3C)nc3c2CCN(c2cccc4cccc(C)c24)C3)CC1CC#N
IC50 (curve of first compound, second compound 0.0316 µM): > 10000 nM | IC50 [1]: > 10000 nM | IC50 [2]: > 10000 nM | IC50 [3]: > 10000 nM | IC50 [4]: 43.6 nM | viability, T/C (second compound 0.0316 µM, first compound 0.0316 µM): 84.5% | viability, T/C (second compound 0.0316 µM, first compound 0.1 µM): 83.1% | viability, T/C (second compound 0.0316 µM, first compound 0.316 µM): 81.1% | viability, T/C (second compound 0.0316 µM, first compound 1 µM): 75.4% | viability, T/C (second compound 0.0316 µM, first compound 3.16 µM): 75.6% | viability, T/C (second compound 0.0316 µM, first compound 10 µM): 62.5% | viability, T/C [5]: 90.8% | viability, T/C [6]: 79.2% | viability, T/C [7]: 69.9% | viability, T/C [8]: 65.9% | viability, T/C (second compound 0.1 µM, first compound 3.16 µM): 79% | viability, T/C (second compound 0.1 µM, first compound 10 µM): 56.9% | viability, T/C [9]: 89.3% | viability, T/C [10]: 74.3% | viability, T/C [11]: 67.9% | viability, T/C [12]: 68.9% | viability, T/C (second compound 0.316 µM, first compound 3.16 µM): 69.8% | viability, T/C (second compound 0.316 µM, first compound 10 µM): 57.2% | viability, T/C [13]: 83.5% | viability, T/C [14]: 72.5% | viability, T/C [15]: 61.5% | viability, T/C [16]: 58.7% | viability, T/C (second compound 1 µM, first compound 3.16 µM): 61.4% | viability, T/C (second compound 1 µM, first compound 10 µM): 48.3% | viability, T/C [17]: 55.9% | viability, T/C [18]: 37% | viability, T/C [19]: 33.8% | viability, T/C [20]: 26.8% | viability, T/C (second compound 3.16 µM, first compound 3.16 µM): 16.4% | viability, T/C (second compound 3.16 µM, first compound 10 µM): 6.38%
